The source of these data is patent publication US11780826B2 (Amgen Inc., priority 2017, dated 2023).

SMILES strings stand for the structures.

This assay deals with Bovine cardiac myofibrils. As to the kind of experiment: In vitro model of dose-dependent myofibril ATPase modulation (AC1.4, pyruvate kinase/lactate dehydrogenase-coupled ATPase assay at pCa25). It is filed as biochemical. The settings on record: concentration at which ATPase activity was 1.4-fold higher than the bottom of the dose curve, mean of a minimum of two independent tests. Put shortly: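 Bovine cardiac myofibrils, detergent-treated; 0.25-1.0 mg/ml. Buffer: K-PIPES 12 mM, MgCl2 2 mM, DTT 1 mM, BSA 0.1 mg/ml, pH 6.80, 22° C; Ca2+ set by EGTA/CaCl2. ATP 1 mM, NADH/PEP-coupled, A340. 4-parameter fit; n≥2.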
With `CS(=O)(=O)N1CC(F)(c2cccc(C(=O)N3[C@@H](C(=O)N[C@@H](c4ccc(C(F)(F)F)cc4F)C4CC4)C[C@H]4C[C@H]43)c2)C1` [Example 422, (1R,3R,5R)-N-((R)-cyclopropyl(2-fluoro-4-(trifluoromethyl)phenyl)methyl)-2-(3-(3-fluoro-1-(methylsulfonyl)-3-azetidinyl)benzoyl)-2-azabicyclo[3.1.0]hexane-3-carboxamide], the AC1.4 amounted to 1.5655 µM.
For the compound `NS(=O)(=O)c1cccc(C(=O)N2C[C@@H](F)C[C@@H]2C(=O)N[C@@H](c2cc(F)c(Cl)cc2F)C2CC2)c1` [Example 280, (4S)-N-((R)-(4-chloro-2,5-difluorophenyl)(cyclopropyl)methyl)-4-fluoro-1-(3-sulfamoylbenzoyl)-D-prolinamide], the AC1.4 is 0.713 µM.
With `N#CC1CN(S(=O)(=O)c2cccc(C(=O)N3CCC[C@@H]3C(=O)NCc3cnc(C(F)(F)F)nc3)c2)C1` [Example 136, 1-((3-((3-cyano-1-azetidinyl)sulfonyl)phenyl)carbonyl)-N-((2-(trifluoromethyl)-5-pyrimidinyl)methyl)-D-prolinamide] the figure was 0.2235 µM; with `N#CC1CN(S(=O)(=O)N2CCC[C@H](C(=O)N3CCC[C@@H]3C(=O)NCc3ccc(CF)cc3)C2)C1` [Example 413, 1-(((3S)-1-((3-cyano-1-azetidinyl)sulfonyl)-3-piperidinyl)carbonyl)-N-(4-(fluoromethyl)benzyl)-D-prolinamide], 1.511 µM.
Turning to `CC[C@@H](NC(=O)[C@H]1CCCN1C(=O)c1cccc(S(=O)(=O)N(C)C)c1)c1ccc(Cl)c(F)c1` [Example 259, N-((1R)-1-(4-chloro-3-fluorophenyl)propyl)-1-(3-(dimethylsulfamoyl)benzoyl)-D-prolinamide], the AC1.4 worked out at 0.6372 µM.
Then `O=C(N[C@@H](c1cc(F)c(C(F)(F)F)cc1F)[C@H]1C[C@H](O)C1)[C@H]1C[C@H]2C[C@H]2N1C(=O)c1ccnc(C(F)F)c1` [Example 831, (1R,3R,5R)-N-((R)-(2,5-difluoro-4-(trifluoromethyl)phenyl)((lr,3R)-3-hydroxycyclobutyl)methyl)-2-(2-(difluoromethyl)isonicotinoyl)-2-azabicyclo[3.1.0]hexane-3-carboxamide], with 0.6115 µM; and `N#CC1CN(S(=O)(=O)c2cccc(C(=O)N3C[C@H](O)C[C@@H]3C(=O)NCc3ccc(C(F)(F)F)cc3)c2)C1` [Example 126, (4R)-1-((3-((3-cyano-1-azetidinyl)sulfonyl)phenyl)carbonyl)-4-hydroxy-N-(4-(trifluoromethyl)benzyl)-D-prolinamide], with 0.2062 µM.
Then `N#CC1CN(S(=O)(=O)c2cccc(C(=O)N3CCC[C@@H]3C(=O)NCc3cc(F)cc(F)c3F)c2)C1` [Example 100, 1-(3-((3-cyano-1-azetidinyl)sulfonyl)benzoyl)-N-(2,3,5-trifluorobenzyl)-D-prolinamide], with 0.1502 µM.
Then `C[C@H]1[C@@H](C(=O)N2CCC[C@@H]2C(=O)NCc2ccc(C(F)(F)F)cc2)CCCN1S(=O)(=O)N1CC(C#N)C1` [Example 271, 1-(((2S,3S)-1-((3-cyano-1-azetidinyl)sulfonyl)-2-methyl-3-piperidinyl)carbonyl)-N-(4-(trifluoromethyl)benzyl)-D-prolinamide], with 0.6874 µM; and `COc1cccc2c1CCC2NC(=O)[C@H]1CCCN1C(=O)[C@H]1CCCN(S(=O)(=O)N2CC(C#N)C2)C1` (stereo partly drawn) [Example 242, (2R)-1-((S)-1-((3-cyanoazetidin-1-yl)sulfonyl)piperidine-3-carbonyl)-N-(4-methoxy-2,3-dihydro-1H-inden-1-yl)pyrrolidine-2-carboxamide], with 0.573 µM; and `C[C@@H](NC(=O)[C@H]1CCCN1C(=O)[C@H]1CCCN(S(=O)(=O)N2CC(C#N)C2)C1)c1ccc(Cl)c(F)c1` [Example 69, N-((1R)-1-(4-chloro-3-fluorophenyl)ethyl)-1-(((3S)-1-((3-cyano-1-azetidinyl)sulfonyl)-3-piperidinyl)carbonyl)-D-prolinamide], with 0.08835 µM.
